Laboratory results reported in patent US20260191863A1, “PYRROLOPYRIMIDINE COMPOSITIONS FOR TREATMENT OF ITK MEDIATED CONDITIONS” (ACLARIS THERAPEUTICS, INC., priority 2022, published 2026).
Values joined by “and” are separate entries in the source; they are usually repeats but may differ in a detail not shown here. Equal values may be shown once. Read-outs that look alike come from different tables or passages of the source.

Experiments:
[1] = Phase 1 single ascending dose (SAD) study: pharmacokinetics, food effect, formulation bridging; type: in vivo, human; conditions: for AUC(0-t): read-out: AUC0-24; for Vd/F: read-out: Vz/F
Experimental: Type of Study—This was an FIH, randomized, observer-blind, placebo-controlled study designed to evaluate the safety, tolerability, PK, and PD of Compound I in healthy subjects. The study consisted of: single ascending dose (SAD) cohorts (1-80 mg/day) plus formulation bridging and food effect (FE) cohorts.
Approximately 64 male and female subjects were enrolled into 8 planned cohorts in the SAD study. In each cohort, a total of 8 subjects were randomized to receive a single oral capsule dose of Compound I (n=6) or placebo (n=2) in the morning with approximately 240 mL of water after an overnight fast of at least 8 hours.
Cohort 4 was an FE (food effect) cohort where subjects received Compound I capsules or placebo, fasted on Day 1 and Compound I or placebo after a high-fat, high-calorie breakfast on Day 8 after a 7-day washout period.
Cohort 5 was a formulation bridging cohort where subjects will receive Compound I capsules or placebo on Day 1 and Compound I tablets or placebo on Day 8 after a 7-day washout period.
The dosage form of Compound I in Cohorts 6, 7, and 8 were capsules and the subjects will receive a single oral dose of Compound I (n=6) capsules or placebo (n=2) on Day 1 after an overnight fast of at least 8 hours.

[2] = test system: ITK (IL2 mRNA); experiment: Pre-clinical human whole blood αCD3/28/IL-2 mRNA (2 hr); type: cell-based
[3] = test system: JAK3 (pSTAT5, lymph); experiment: Pre-clinical human whole blood IL-2/pSTAT5 (20 min), lymphocytes; type: cell-based; conditions: for EC50: Homo sapiens, Lymphocyte
[4] = test system: JAK3 (pSTAT5, CD3+ T); experiment: Pre-clinical IL2 stimulated pSTAT5 in CD3+ T cells; type: cell-based; conditions: Homo sapiens, T-cell
[5] = test system: ITK & JAK (IFNγ protein); experiment: Pre-clinical human whole blood αCD3 + IL-15/IFNγ (18 hr); type: cell-based
[6] = test system: ankle diameter swelling (Antigen Induced Arthritis); experiment: Rat Antigen Induced Arthritis (AIA) model, ankle diameter swelling; type: in vivo; conditions: PO from day 6
Description: The study evaluated the rat AIA kinetics of ankle diameter swelling. Therapeutic model with PO dosing beginning on day 6.

[7] = target: T1, JAK2 (Homo sapiens, UniProt O60674); experiment: Cell IC50 JAK2; type: cell-based
T1 construct: endogenous in cells
T1 sequence (O60674 whole entry): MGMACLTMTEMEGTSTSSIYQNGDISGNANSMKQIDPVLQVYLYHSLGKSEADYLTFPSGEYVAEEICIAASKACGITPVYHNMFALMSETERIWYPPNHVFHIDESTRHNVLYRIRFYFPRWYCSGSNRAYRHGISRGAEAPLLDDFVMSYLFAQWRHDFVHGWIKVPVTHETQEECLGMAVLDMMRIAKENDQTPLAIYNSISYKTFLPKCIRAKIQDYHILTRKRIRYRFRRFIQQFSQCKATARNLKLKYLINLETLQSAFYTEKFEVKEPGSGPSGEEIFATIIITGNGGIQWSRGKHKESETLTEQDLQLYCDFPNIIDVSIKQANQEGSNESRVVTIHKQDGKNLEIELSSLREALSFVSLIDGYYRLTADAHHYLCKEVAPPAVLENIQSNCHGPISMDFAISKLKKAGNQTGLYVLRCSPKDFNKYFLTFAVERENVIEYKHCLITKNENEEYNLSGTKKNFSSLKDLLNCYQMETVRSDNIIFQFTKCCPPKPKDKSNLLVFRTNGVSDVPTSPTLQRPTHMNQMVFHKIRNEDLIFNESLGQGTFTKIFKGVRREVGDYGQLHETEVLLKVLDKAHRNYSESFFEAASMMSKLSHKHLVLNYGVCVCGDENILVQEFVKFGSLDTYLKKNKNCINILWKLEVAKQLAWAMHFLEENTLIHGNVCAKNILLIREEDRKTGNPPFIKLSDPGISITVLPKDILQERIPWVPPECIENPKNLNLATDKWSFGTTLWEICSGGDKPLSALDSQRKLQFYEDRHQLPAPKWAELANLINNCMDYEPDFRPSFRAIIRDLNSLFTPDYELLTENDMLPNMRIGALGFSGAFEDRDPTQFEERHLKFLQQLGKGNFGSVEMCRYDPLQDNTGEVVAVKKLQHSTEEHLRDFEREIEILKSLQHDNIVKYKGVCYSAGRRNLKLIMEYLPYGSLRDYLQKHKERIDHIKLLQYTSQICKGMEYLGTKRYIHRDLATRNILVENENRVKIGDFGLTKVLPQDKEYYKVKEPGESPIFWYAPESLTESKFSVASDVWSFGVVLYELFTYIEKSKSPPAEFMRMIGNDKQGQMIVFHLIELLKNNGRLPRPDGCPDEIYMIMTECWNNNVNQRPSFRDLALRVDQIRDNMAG

[8] = both sexes, human, in vivo, po, 1 mg, single oral dose 1 mg, capsule, fasted
[9] = both sexes, human, in vivo, po, 3 mg, single oral dose 3 mg, capsule, fasted
[10] = both sexes, human, in vivo, po, 5 mg, single oral dose 5 mg, capsule, fasted
[11] = both sexes, human, in vivo, po, 15 mg, single oral dose 15 mg, capsule, fasted
[12] = both sexes, human, in vivo, po, 15 mg, single oral dose 15 mg, capsule, fed (high-fat, high-calorie breakfast)
[13] = both sexes, human, in vivo, po, 25 mg, single oral dose 25 mg, capsule, fasted
[14] = both sexes, human, in vivo, po, 25 mg, single oral dose 25 mg, tablet
[15] = both sexes, human, in vivo, po, 50 mg, single oral dose 50 mg, capsule, fasted
[16] = both sexes, human, in vivo, po, 80 mg, single oral dose 80 mg, capsule, fasted
[17] = single oral dose 15 mg, capsule, fasted
[18] = single oral dose 15 mg, capsule, fed (high-fat, high-calorie breakfast)
[19] = Homo sapiens, read-out: Pre-clinical EC50

C=CC(=O)N1C[C@H](Nc2ncnc3[nH]cc([C@H]4CC4(F)F)c23)CC[C@@H]1C [Compound I, 1-((2S,5R)-5-((5-((R)-2,2-difluorocyclopropyl)-7H-pyrrolo[2,3-d]pyrimidin-4-yl)amino)-2-methylpiperidin-1-yl)prop-2-en-1-one]
Difference in PK parameters between capsule and tablet formulation ([1]; 25 mg single dose): No significant difference | Plasma concentration dose dependence ([1]; SAD): increased in a dose-dependent manner | Time to peak plasma concentration after dosing ([1]; SAD): ≤ 2 h | Exposure dose proportionality (Cmax and AUC) ([1]; SAD, 1-80 mg single dose): dose-proportional | half-life ([1]; both sexes, human, in vivo, oral, SAD, 1-80 mg single dose, read-out: Half-life (range across doses)): 1.5 to 2.5 h | Tmax ([1]; both sexes, human, in vivo, oral, SAD, 1-80 mg single dose, read-out: Tmax (range across doses)): 0.7 to 1.2 h | AUC(0-inf) [1, 8]: 5.95 ng·h/mL | Cmax [1, 8]: 2.71 ng/mL | AUC(0-t) [1, 8]: 5.95 ng·h/mL | half-life ([1]; both sexes, human, in vivo, po, 1 mg, single oral dose 1 mg, capsule, fasted, read-out: T1/2 (converted)): 1.51 h | Tmax ([1]; both sexes, human, in vivo, po, 1 mg, single oral dose 1 mg, capsule, fasted, read-out: Tmax): 0.674 h | Vd/F [1, 8]: 384 L | AUC(0-inf) [1, 9]: 15.8 ng·h/mL | Cmax [1, 9]: 5.9 ng/mL | AUC(0-t) [1, 9]: 15.4 ng·h/mL | half-life ([1]; both sexes, human, in vivo, po, 3 mg, single oral dose 3 mg, capsule, fasted, read-out: T1/2 (converted)): 1.53 h | Tmax ([1]; both sexes, human, in vivo, po, 3 mg, single oral dose 3 mg, capsule, fasted, read-out: Tmax): 0.757 h | Vd/F [1, 9]: 419 L | AUC(0-inf) [1, 10]: 33.5 ng·h/mL | Cmax [1, 10]: 11.9 ng/mL | AUC(0-t) [1, 10]: 33.1 ng·h/mL | half-life ([1]; both sexes, human, in vivo, po, 5 mg, single oral dose 5 mg, capsule, fasted, read-out: T1/2 (converted)): 1.53 h | Tmax ([1]; both sexes, human, in vivo, po, 5 mg, single oral dose 5 mg, capsule, fasted, read-out: Tmax): 1.07 h | Vd/F [1, 10]: 331 L | AUC(0-inf) [1, 11]: 96.7 ng·h/mL | Cmax [1, 11]: 31.5 ng/mL | AUC(0-t) [1, 11]: 95.7 ng·h/mL | half-life ([1]; both sexes, human, in vivo, po, 15 mg, single oral dose 15 mg, capsule, fasted, read-out: T1/2 (converted)): 1.61 h | Tmax ([1]; both sexes, human, in vivo, po, 15 mg, single oral dose 15 mg, capsule, fasted, read-out: Tmax): 1 h | Vd/F [1, 11]: 360 L | AUC(0-inf) [1, 12]: 93.9 ng·h/mL | Cmax [1, 12]: 17.6 ng/mL | AUC(0-t) [1, 12]: 105 ng·h/mL | half-life ([1]; both sexes, human, in vivo, po, 15 mg, single oral dose 15 mg, capsule, fed (high-fat, high-calorie breakfast), read-out: T1/2 (converted)): 1.73 h | Tmax ([1]; both sexes, human, in vivo, po, 15 mg, single oral dose 15 mg, capsule, fed (high-fat, high-calorie breakfast), read-out: Tmax): 5 h | Vd/F [1, 12]: 399 L | AUC(0-inf) [1, 13]: 154 ng·h/mL | Cmax [1, 13]: 47 ng/mL | AUC(0-t) [1, 13]: 153 ng·h/mL | half-life ([1]; both sexes, human, in vivo, po, 25 mg, single oral dose 25 mg, capsule, fasted, read-out: T1/2 (converted)): 1.57 h | Tmax ([1]; both sexes, human, in vivo, po, 25 mg, single oral dose 25 mg, capsule, fasted, read-out: Tmax): 1.35 h | Vd/F [1, 13]: 366 L | AUC(0-inf) [1, 14]: 199 ng·h/mL | Cmax [1, 14]: 63.6 ng/mL | AUC(0-t) [1, 14]: 197 ng·h/mL | half-life ([1]; both sexes, human, in vivo, po, 25 mg, single oral dose 25 mg, tablet, read-out: T1/2 (converted)): 1.75 h | Tmax ([1]; both sexes, human, in vivo, po, 25 mg, single oral dose 25 mg, tablet, read-out: Tmax): 1.07 h | Vd/F [1, 14]: 317 L | AUC(0-inf) [1, 15]: 428 ng·h/mL | Cmax [1, 15]: 143 ng/mL | AUC(0-t) [1, 15]: 426 ng·h/mL | half-life ([1]; both sexes, human, in vivo, po, 50 mg, single oral dose 50 mg, capsule, fasted, read-out: T1/2 (converted)): 1.84 h | Tmax ([1]; both sexes, human, in vivo, po, 50 mg, single oral dose 50 mg, capsule, fasted, read-out: Tmax): 1.24 h | Vd/F [1, 15]: 310 L | AUC(0-inf) [1, 16]: 676 ng·h/mL | Cmax [1, 16]: 196 ng/mL | AUC(0-t) [1, 16]: 675 ng·h/mL | half-life ([1]; both sexes, human, in vivo, po, 80 mg, single oral dose 80 mg, capsule, fasted, read-out: T1/2 (converted)): 2.53 h | Tmax ([1]; both sexes, human, in vivo, po, 80 mg, single oral dose 80 mg, capsule, fasted, read-out: Tmax): 1.22 h | Vd/F [1, 16]: 432 L | Effect of high-calorie, high-fat meal on AUC, bioavailability, T1/2 ([1]; single 15 mg dose): no significant effect | Reduction of Cmax by a high-calorie, high-fat meal ([1]; single 15 mg dose): 31% | CL/F ([1]; single oral dose 1 mg, capsule, fasted): 168 L/h | CL/F ([1]; single oral dose 3 mg, capsule, fasted): 190 L/h | CL/F ([1]; single oral dose 5 mg, capsule, fasted): 149 L/h | CL/F [1, 17]: 155 L/h | Tmax [1, 17]: 1.09 h | CL/F [1, 18]: 160 L/h | Tmax [1, 18]: 4.99 h | CL/F ([1]; single oral dose 25 mg, capsule, fasted): 162 L/h | CL/F ([1]; single oral dose 25 mg, tablet): 126 L/h | CL/F ([1]; single oral dose 50 mg, capsule, fasted): 117 L/h | CL/F ([1]; single oral dose 80 mg, capsule, fasted): 118 L/h | PK profile (linearity, absorption) ([1]; up to 80 mg single dose): PK was linear and absorption was fast | Potency relative to Ritlecitinib, αCD3/28/IL-2 mRNA (2 hr) [2]: (35 fold*) | IC50 ([2]; Homo sapiens): 0.0077 µg/mL and 21.3 nM | EC50 ([2]; Homo sapiens, 2 h, read-out: Human Whole Blood EC50, αCD3/28/IL-2 mRNA (2 hr)): 21 nM | EC50 [2, 19]: 21.3 ± 4.3 nM | Potency relative to Ritlecitinib, IL-2/pSTAT5 (20 min) [3]: (1.2 fold*) | EC50 ([3]; 20 min, read-out: Human Whole Blood EC50, IL-2/pSTAT5 (20 min)): 136 nM | EC50 ([3]; read-out: Pre-clinical EC50): 136 ± 51.2 nM | EC50 [4]: 140 ± 49.3 nM | Potency relative to Ritlecitinib, αCD3 + IL-15/IFNγ (18 hr) [5]: (3.3 fold*) | IC50 ([5]; Homo sapiens): 0.0036 µg/mL and 10.1 nM | EC50 ([5]; Homo sapiens, 18 h, read-out: Human Whole Blood EC50, αCD3 + IL-15/IFNγ (18 hr)): 10 nM | EC50 [5, 19]: 10.2 ± 4.1 nM | EC50 ([5]; human whole blood dual stimulation, read-out: Human Compound I Cp to reach HWB dual stim EC50 (in vitro report)): ≥ 4.19 ng/mL | Ankle diameter swelling, comparison of regimens ([6]; rat AIA, 5 mpk BID, 15 BID and 30 QD): No significant difference | BID vs QD dosing efficacy ([6]; rat arthritis model): BID dosing is more effective than QD dosing | Cell IC50, JAK2 [7]: Inactive
